These results are taken from paper PMC10145531, “Platinum(IV)-Loaded Degraded Glycol Chitosan as Efficient Platinum(IV) Drug Delivery Platform” (Pharmaceutics, 2023).

Series [1] deals with SW480 (colon adenocarcinoma). Set-up: method as in PMID 36432656. The conditions noted are these: MTT, 96 h; cited from earlier work.
Series [2] has as its system A549 (non-small-cell lung carcinoma). Set-up: method as in PMID 36432656. The settings on record: MTT, 96 h; cited from earlier work.
Series [3] concerns CH1/PA-1 (ovarian teratocarcinoma). Set-up: method as in PMID 36432656. The conditions noted are these: MTT, 96 h; cited from earlier work.
For series [4], the system named is SW480 (colon adenocarcinoma). The series is described as follows: MTT cytotoxicity assay, SW480 cells (96 h). Format: cell-based, human. On the procedure:
(§1) Cell culture of the cell lines CH1/PA-1, SW480 and A549 was performed as described in reference. 4T1 cells were purchased from American Type Culture Collection, stored in a liquid nitrogen dewar and cultured in Roswell Park Memorial Institute (RPMI)-1640 medium supplemented with 10% foetal bovine serum (FBS) (Thermo Fisher, Waltham, MA, USA).
(§2) Cytotoxicity tests (96 h incubation) in the cell lines CH1/PA-1, SW480 and A549 were conducted as described in reference. Compounds were dissolved in supplemented minimum essential medium (MEM), except for compound C10, which was dissolved in sterile Milli-Q water.
(§3) Based on the required solubility, conjugates C1–C12 were forwarded for cytotoxicity assessments, whereas conjugates S1–S5 could not be tested due to solubility issues (Supporting Information, Table S1). The twelve substances C1–C12 were examined in comparison to the free platinum(IV) complexes and the unloaded dGC polymers with three different chain lengths for their cytotoxic activity in vitro. For this purpose, the colorimetric MTT assay was used in three human cancer cell lines (A549 (non-small-cell lung carcinoma), CH1/PA-1 (ovarian teratocarcinoma) and SW480 (colon adenocarcinoma)), yielding IC50 values in the low micromolar to nanomolar concentration range for all conjugates (Table 3, Supporting Information, Figures S18–S20). The three tested cell lines differ in their platinum sensitivity. SW480 and A549 cells are intrinsically cisplatin- and carboplatin-resistant due to their low expression of CTR1, whereas CH1/PA-1 cells show high chemosensitivity, particularly to platinum drugs.
On the technique in general: Tetrazolium assays rely on reduction of a dye to a coloured formazan, in cell work by metabolically active cells.

Series [5] relates to CH1/PA-1 (ovarian teratocarcinoma). As to the kind of experiment: MTT cytotoxicity assay, CH1/PA-1 cells (96 h). Type of series: cell-based, human. As for the experimental part:
as §1, §2, §3

The subject of series [6] is A549 (non-small-cell lung carcinoma). As to the kind of experiment: MTT cytotoxicity assay, A549 cells (96 h). Format: cell-based, human. On the procedure:
as §1, §2, §3

Series [7] can be described thus: Biodistribution study (platinum content of organs by ICP-MS) in non-tumour-bearing mice. Format: in vivo, Balb/C mice. On the procedure: The Animal Welfare and Ethical Review Body at University College London (UCL) authorised all animal experiments, which were performed under license from the Home Office, UK. […] All substances were applied intravenously (100 µL stock/20 g body weight) via tail vein injection. At the chosen time points, animals were culled with CO2, and the major organs (lung, heart, liver, spleen and kidneys) were collected and frozen in liquid nitrogen. The samples were transferred to the Institute of Inorganic Chemistry, University of Vienna, Austria, where the total platinum content of each sample was determined with an Agilent 7500 ICP-quadrupole MS instrument.
The major organs of liver, lung, heart, kidney and spleen were collected after two specific time points (1 h and 24 h), and the platinum content of each organ was evaluated with ICP-MS analysis (Figure 3).

[8] abbreviates: MTT, 96 h incubation, read-out: IC50 [µM] SW480.
Setting [9] is: free platinum(IV) complexes: equals measured IC50 of Table 3, read-out: Concentration of Pt(IV) Units at IC50 [µM] SW480.
The mark [10] stands for this setting: MTT, 96 h incubation, read-out: IC50 [µM] CH1/PA-1.
[11] abbreviates: free platinum(IV) complexes: equals measured IC50 of Table 3, read-out: Concentration of Pt(IV) Units at IC50 [µM] CH1/PA-1.
[12] abbreviates: MTT, 96 h incubation, read-out: IC50 [µM] A549.
[13] abbreviates: free platinum(IV) complexes: equals measured IC50 of Table 3, read-out: Concentration of Pt(IV) Units at IC50 [µM] A549.

Like-named read-outs stand apart in the source and are kept apart here.

Take `N.N.O=C([O-])C1(C(=O)[O-])CCC1.[Pt+2]` [Carboplatin, carboplatin]: the values for the IC50 in series [1], in series [2] and in series [3] were 42 ± 10 µM, 38 ± 3 µM and 0.79 ± 0.11 µM, respectively.
As to `N.N.[Cl][Pt][Cl]` [Cisplatin, cisplatin], the IC50 was 2.3 ± 0.2 µM in series [1], 3.8 ± 1 µM in series [2] and 0.073 ± 0.001 µM in series [3].
As to `O=C1[O][Pt]2([NH][C@@H]3CCCC[C@H]3[NH]2)[O]C1=O` [Oxaliplatin, oxaliplatin], the IC50 is 0.29 ± 0.05 µM in series [1], 0.98 ± 0.21 µM in series [2] and 0.18 ± 0.01 µM in series [3].
Regarding “(OC-6-44)-Acetaodiammine(3-carboxypropanoato)(cyclobutane-1,1-dicarboxylato)platinum(IV) [compound 4]”, the IC50 in series [4] (setting [8]) is greater than 200 µM; in series [4] (setting [9]), greater than 200 µM; in series [5] (setting [10]), 16 ± 6 µM; in series [5] (setting [11]), 16 ± 6 µM; in series [6] (setting [12]) it was greater than 200 µM; in series [6] (setting [13]) it was greater than 200 µM.
Consider “(OC-6-44)-Acetato(3-carboxypropanoato)(1R,2R-cyclohexane-1,2-diamine)oxalatoplatinum(IV) [compound 6]”, for which the IC50 in series [4] (setting [8]) is 22 ± 8 µM; in series [5] (setting [10]), 4.1 ± 0.6 µM; in series [5] (setting [11]), 4.1 ± 0.6 µM; in series [6] (setting [12]), 70 ± 29 µM. For the same molecule, the “organ distribution of platinum (ICP-MS)” value in series [7] (1 h post i.v. administration, 6: 0.15 mg/100 µL, V3: 0.41 mg/100 µL) was “highest concentrations in the excretory organs (kidney and liver)”. The “change of platinum amount in organs at 24 h vs 1 h” value in series [7] (24 h post i.v. injection, 6: 0.15 mg/100 µL, V3: 0.41 mg/100 µL) is “only slightly raised in all systemic organs”. The “increase of platinum amount in the kidneys after 24 h vs 1 h” value in series [7] (i.v., 0.15 mg/100 µL (5.5 mg/kg oxaliplatin equivalent), female Balb/C mice) is 2.1 fold. For the same molecule, the tolerability in mice result in series [7] (i.v., 6: equivalent to 5.5 mg/kg oxaliplatin, V3: equivalent to 2.75 mg/kg oxaliplatin) was “well tolerated without signs of toxicity”.
For the molecule “(OC-6-44)-Acetatodiammine(3-carboxypropanoato)dichloridoplatinum(IV) [compound 2]”, the IC50 is 47 ± 10 µM in series [4] (setting [8]); 47 ± 10 µM in series [4] (setting [9]); 1.2 ± 0.5 µM in series [5] (setting [10]); 1.2 ± 0.5 µM in series [5] (setting [11]); 99 ± 17 µM in series [6] (setting [12]); 99 ± 17 µM in series [6] (setting [13]).
